Assay results reported in ChEMBL document CHEMBL1127573, “Anticancer specificity of some ellipticinium salts against human brain tumors in vitro” (1994).

Tests used:
Format in all cases: functional
[1] = species: Homo sapiens; test: Concentration yielding an amount of cellular protein at the end of the incubation that is the same as at the beginning of the incubation in brain tumor sub panel
[2] = species: Homo sapiens; test: Concentration yielding an amount of cellular protein at the end of the incubation that is the same as at the beginning of the incubation in full panel
[3] = Selectivity rating against brain tumor cell line panel; i moderatelyselective (*) if 3< (A/B)< 6 and TGI-Corr > 0.8
[4] = species: Homo sapiens; test: TGI correlation coefficient value of the compound
[5] = Selective rating against brain tumor cell line panel; i selective (**) if (A/B)> 6 and TGI-Corr > 0.8
[6] = Selectivity rating for brain tumor cell line panel; i selective (**) if (A/B)> 6 and TGI-Corr > 0.8

Row | Structure (SMILES) | TGI concentration [1] | TGI concentration [2] | Selectivity rating [3] | TGI correlation coefficient [4] | Selectivity rating [5] | Selectivity rating [6]
1 | CC(=O)[O-].Cc1c2cc[n+](C)cc2c(C)c2c1[nH]c1ccc(Cl)cc12 | 4.7 µM | 22 µM | Moderately selective | 0.85 | – | –
2 | Cc1c2ccncc2c(C)c2c1[nH]c1ccc(Cl)cc12 | 16 µM | 17 µM | – | <0.5 | – | –
3 | Cc1c2cc[n+](C)cc2c(C)c2c1[nH]c1ccccc12 | – | – | – | – | Selective | –
4 | COc1ccc2[nH]c3c(C)c4ccncc4c(C)c3c2c1 | 3.6 µM | 3.2 µM | – | <0.5 | – | –
5 | Cc1c2cc[n+](C)cc2c(C)c2c1[nH]c1ccccc12.[I-] | 1.4 µM | 12 µM | – | 0.96 | – | –
6 | CC(=O)[O-].Cc1c2cc[n+](C)cc2c(C)c2c1[nH]c1ccc(O)cc12 [ELLIPTINIUM ACETATE] | 58 µM | 78 µM | – | <0.5 | – | –
7 | CC(=O)[O-].Cc1c2cc[n+](C)c(C)c2cc2c1[nH]c1ccccc12 | 8.9 µM | 32 µM | – | 0.8 | – | Moderately selective
8 | CC(=O)[O-].Cc1ccc2[nH]c3c(C)c4cc[n+](C)cc4c(C)c3c2c1 | 6.9 µM | 21 µM | Moderately selective | 0.83 | – | –
9 | CS(=O)(=O)[O-].Cc1c2cc[n+](C)cc2c(C)c2c1[nH]c1ccccc12 | 1 µM | 11 µM | – | 0.86 | – | –
10 | C=CCCCCn1c2ccccc2c2c(C)c3c[n+](C)ccc3c(C)c21.CC(=O)[O-] | 1.8 µM | 2.9 µM | – | 0.6 | – | –
11 | Cc1c2ccncc2c(C)c2c1[nH]c1ccccc12 [ELLIPTECINE] | 2.9 µM | 3 µM | – | <0.5 | – | –
12 | Cc1nccc2c(C)c3[nH]c4ccccc4c3cc12 | 3.7 µM | 3.6 µM | – | <0.5 | – | –
13 | CC(=O)[O-].Cc1c2cc[n+](C)cc2c(C)c2c1oc1ccccc12 | 5.5 µM | 20 µM | Moderately selective | 0.89 | – | –
14 | COc1ccc2[nH]c3c(C)c4cc[n+](C)cc4c(C)c3c2c1.[I-] | 1.1 µM | 11 µM | – | 1 | – | –
15 | COc1ccc2[nH]c3c(C)c4cc[n+](C)cc4c(C)c3c2c1 | – | – | – | – | Selective | –
16 | Cc1c2cc[n+](CCN3CCCCC3)cc2c(C)c2c1[nH]c1ccc(O)cc12 | 20 µM | 34 µM | – | 0.71 | – | –
17 | CCN(CC)CC[n+]1ccc2c(C)c3[nH]c4ccccc4c3c(C)c2c1.[Br-] | 2.7 µM | 4.2 µM | – | 0.66 | – | –
18 | Cc1c2cc[n+](Cc3ccc(I)cc3)cc2c(C)c2c1[nH]c1ccccc12.[Cl-] | 54 µM | 44 µM | – | <0.5 | – | –
19 | Cc1c2cc[n+]([O-])cc2c(C)c2c1[nH]c1ccccc12 | 41 µM | 62 µM | – | <0.5 | – | –
20 | Cc1c2ccncc2c(C)c2c1[nH]c1ccc(O)cc12 | 3.4 µM | 2.8 µM | – | <0.5 | – | –
21 | CC(=O)[O-].COc1ccc2[nH]c3c(C)c4cc[n+](C)cc4c(C)c3c2c1 | 2.1 µM | 18 µM | – | 0.94 | – | –
22 | CCN(CC)CC[n+]1ccc2c(C)c3[nH]c4ccc(O)cc4c3c(C)c2c1.[Cl-] [DATELLIPTIUM CHLORIDE] | 16 µM | 34 µM | – | 0.78 | – | –
23 | Cc1ccc2[nH]c3c(C)c4ccncc4c(C)c3c2c1 | 3.1 µM | 2.7 µM | – | <0.5 | – | –
